# From patent publication US11607417B2, “Uses of celastrol in preventing and/or treating cholestatic liver disease and liver fibrosis” (KUNMING INSTITUTE OF BOTANY, THE CHINESE ACADEMY OF SCIENCES, priority 2017, dated 2023)
# System: ANIT-induced cholestatic liver injury under SIRT1 inhibition
# Assay: Effect of SIRT1 inhibition (EX527) on celastrol activity in ANIT model (Example 3)
# Format: in vivo, C57BL/6 mice
# Protocol: A total of 24 male C57BL/6 mice were divided into four groups: blank group (n=6); model group (n=6); treatment group (n=6); and EX527 group (n=6).
# Celastrol was dissolved in a solvent to obtain a celastrol solution at a concentration of 2 mg/mL, wherein the solvent consisted of 1% DMSO, 2% Tween 80, and 97% water (v:v:v). For intragastrical administration, the dosage of celastrol was 10 mg/kg·d. ANIT was dissolved in corn oil to obtain a corn oil solution of ANIT at a concentration of 15 mg/mL, and the dosage of ANIT for intragastrical administration was 75 mg/kg. EX527 was dissolved in corn oil to obtain a corn oil solution of EX527 at a concentration of 2 mg/mL, and the dosage of EX527 for intraperitoneal injection was 10 mg/kg·d.
# The EX527 group was simultaneously administrated with the celastrol solution and the EX527 corn oil solution for 5 consecutive days. The treatment group was administrated with the celastrol solution and an equal dosage of corn oil for 5 consecutive days. At the same time, the blank group and the model group were administrated with equal dosages of solvent (1% DMSO, 2% Tween 80 and 97% water (v:v:v)) and corn oil, and the solvent was administrated for 5 consecutive days.
# On the 3rd day of administration, ANIT model was established. 4 Hours after administration, the mice in the model group, the treatment group and the EX527 group were respectively intraperitoneally injected with the ANIT corn oil solution at a dosage of 75 mg/kg for single administration to induce cholestatic liver injury, and the blank group was fed with an equal dosage of corn oil. After the model was established on the 3rd day of administration, the treatment group was continuously administrated with celastrol, the EX527 group was continuously administrated with celastrol and EX527, and the blank group and the model group were continuously administrated with the same dosage of solvent. 48 Hours after administration with ANIT, the mice were sacrificed by CO2 anesthesia, and mouse liver samples and plasma samples were taken. The eyeballs of the mice were taken for blood collection. The plasma samples were placed on ice for 1-2 hours, centrifuged at 4000 g for 5 minutes at 4° C., and the supernatants of the plasma samples were taken to determine plasma biochemical indicators, the levels of ALT, AST and ALP.
# At the same time, plasma samples were prepared: 10 μL of plasma sample was taken, mixed well with 190 μL of 67% acetonitrile (containing 5 μM internal standard chlorpropamide), centrifuged at 18000 g for 20 minutes at 4° C., and the supernatant was taken for sample injection. The liquid chromatography conditions were as follows: the injection volume was 5 μL; the temperature of column was 45° C.; the flow rate of mobile phase was 0.3 mL/min; the gradient elution was that acetonitrile concentration changed from 2% to 98% during 16 minutes of operation, wherein the mobile phase (water/acetonitrile solution) contained 0.01% formic acid. The elution procedure was as follows: during 0-12th minute, the acetonitrile concentration changed from 2% to 98% at a constant rate; during 12-14th minute, the acetonitrile concentration was maintained at 98%; during 14-14.1th minute, the acetonitrile concentration changed from 98% to 2%; during 14.1-16th minute, the acetonitrile concentration was maintained at 2%. Mass spectrometry conditions were as follows: the temperature of dry gas was 350° C., the pressure of nebulizer was 35 psi, and the voltage of capillary was 3.5 kV.
# Part of the collected mouse liver tissue was fixed overnight in formalin and tissue sections were stained with hematoxylin and eosin (H&E).
# [1] = treatment group: celastrol 10 mg/kg·d, P<0.05, FIG. 3E
smiles,measurement,setting,value
"CC1=C(O)C(=O)C=C2C1=CC=C1[C@@]2(C)CC[C@@]2(C)[C@@H]3C[C@](C)(C(=O)O)CC[C@]3(C)CC[C@]12C [celastrol, Celastrol]",Levels of bile acids in plasma vs model group,"CA, DCA, TβMCA/TαMCA, TCA, THDCA/TUDCA, treatment group: celastrol 10 mg/kg·d, FIG. 3F",significantly lower
same,H&E staining of mouse liver tissue,"treatment group: celastrol 10 mg/kg·d intragastric + corn oil, FIG. 3C",no obvious damage
same,ALP level in plasma vs model group,[1],lower
same,ALT level in plasma vs model group,[1],lower
same,AST level in plasma vs model group,[1],lower
